The test deals with T1, hα4 and β1 integrins (VLA-4) (Homo sapiens, UniProt P05556+P13612).
T1 construct: expressed in transfected cells; host or cells: CHO cells
T1 sequence (P13612 34-1032): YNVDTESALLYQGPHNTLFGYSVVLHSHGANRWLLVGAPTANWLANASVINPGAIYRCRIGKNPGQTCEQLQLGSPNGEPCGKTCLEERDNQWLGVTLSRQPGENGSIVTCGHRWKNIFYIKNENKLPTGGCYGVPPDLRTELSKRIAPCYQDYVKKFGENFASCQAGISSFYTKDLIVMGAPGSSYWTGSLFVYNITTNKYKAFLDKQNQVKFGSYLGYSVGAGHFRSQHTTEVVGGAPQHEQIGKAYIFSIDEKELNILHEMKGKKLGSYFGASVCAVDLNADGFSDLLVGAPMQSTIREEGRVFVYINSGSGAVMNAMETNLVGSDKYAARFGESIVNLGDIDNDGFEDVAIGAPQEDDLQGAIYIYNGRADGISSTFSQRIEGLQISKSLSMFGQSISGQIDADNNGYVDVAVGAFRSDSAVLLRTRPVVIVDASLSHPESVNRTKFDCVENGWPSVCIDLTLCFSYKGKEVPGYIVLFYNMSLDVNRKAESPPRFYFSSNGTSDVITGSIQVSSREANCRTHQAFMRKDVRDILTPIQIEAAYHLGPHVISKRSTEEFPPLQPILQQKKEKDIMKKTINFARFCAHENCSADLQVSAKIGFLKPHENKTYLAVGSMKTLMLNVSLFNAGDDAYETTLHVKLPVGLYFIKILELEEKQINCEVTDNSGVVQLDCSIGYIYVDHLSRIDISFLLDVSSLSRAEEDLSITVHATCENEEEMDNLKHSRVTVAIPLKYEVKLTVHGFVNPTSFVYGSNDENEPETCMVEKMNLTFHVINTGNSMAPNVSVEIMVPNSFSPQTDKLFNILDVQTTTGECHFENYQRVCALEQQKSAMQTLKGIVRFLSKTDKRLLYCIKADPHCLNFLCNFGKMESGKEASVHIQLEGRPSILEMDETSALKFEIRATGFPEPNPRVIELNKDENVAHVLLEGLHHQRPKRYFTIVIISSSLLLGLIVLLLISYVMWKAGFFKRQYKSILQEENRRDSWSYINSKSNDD
T1 sequence (P05556 21-798): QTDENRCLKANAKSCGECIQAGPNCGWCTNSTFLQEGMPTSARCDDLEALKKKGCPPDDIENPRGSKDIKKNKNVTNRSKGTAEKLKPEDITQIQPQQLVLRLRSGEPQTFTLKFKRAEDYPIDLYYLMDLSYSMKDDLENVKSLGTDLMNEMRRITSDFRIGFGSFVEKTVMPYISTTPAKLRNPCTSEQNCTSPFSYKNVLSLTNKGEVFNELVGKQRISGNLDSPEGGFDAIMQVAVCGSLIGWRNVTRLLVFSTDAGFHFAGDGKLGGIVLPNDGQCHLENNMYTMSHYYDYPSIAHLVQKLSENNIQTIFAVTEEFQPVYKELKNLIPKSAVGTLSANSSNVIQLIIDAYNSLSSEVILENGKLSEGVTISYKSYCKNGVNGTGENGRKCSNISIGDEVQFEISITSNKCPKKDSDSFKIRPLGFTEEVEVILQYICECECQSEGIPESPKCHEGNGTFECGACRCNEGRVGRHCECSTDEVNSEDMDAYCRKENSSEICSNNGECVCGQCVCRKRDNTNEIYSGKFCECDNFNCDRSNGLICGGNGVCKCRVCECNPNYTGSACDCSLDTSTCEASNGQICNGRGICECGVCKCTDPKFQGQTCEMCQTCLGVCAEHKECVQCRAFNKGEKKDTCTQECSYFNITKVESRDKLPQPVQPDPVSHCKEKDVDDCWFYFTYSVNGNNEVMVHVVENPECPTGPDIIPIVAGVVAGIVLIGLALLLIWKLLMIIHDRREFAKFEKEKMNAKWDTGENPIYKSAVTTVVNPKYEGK
Briefly: In vitro evaluation: inhibition of binding of CHO cells expressing hα4 and β1 integrins to Eu3+-hVCAM-1 D1D7-IgG. Particulars: ligand Eu3+-hVCAM-1 D1D7-IgG 2 nM, Ki calculated from IC50. The protocol: CHO cells which were forced to be expressed by transduction of hα4 and β1 integrins are seeded (3×10^4 cells/100 μl/well) on a Costar 3599 plate, and cultured for 2 days. A medium is washed with a buffer A* two times, and Eu^3+-hVCAM-1 D1D7-IgG which was diluted with an assay buffer A** to 2 nM is added at 50 μl/well. A test substance which was diluted with 2% DMSO-assay buffer (in the presence or the absence of 6% human serum albumin) is added at 50 μl/well (A solution which was separately diluted is added to a well in which Scatchard analysis is performed), this is stirred with a plate mixer for 5 minutes, and allowed to stand at room temperature for 1 hour. Thereafter, this is washed with a buffer A four times, a potentiating reagent (manufactured by DELFIA) is added at 100 μl/well, this is shaken for 5 minutes using a plate mixer, and a fluorescence intensity is measured with a time-resolved fluorometer (DELFIA Wallac). IC50 (concentration at which binding of CHO cell and Eu^3+-hVCAM-1 D1D7-IgG is inhibited by 50%) of a test substance is obtained from an integration rate obtained from a calculation equation: [(FT−FNS)−(FI−FNS)]/[(FT−FNS)]×100, wherein FT indicates a fluorescence intensity of a well not containing a test substance, FNS indicates a fluorescence intensity of a well not containing a test substance and hVCAM-1 D1D7-IgG, and FI indicates a fluorescence intensity containing a test substance. A Kd value showing strength of binding and Bmax (maximum binding amount) were presumed in a range of 0.06 to 20 nM according to the Scachard analysis method. [formula]
A Ki value was calculated according to the above equation ([L] is ligand concentration)
[* buffer A: 25 mM HEPES (pH 7.5), 150 mM NaCl, 1 mM Ca^2+, 1 mM Mg^2+, 4 mM Mn^2+; ** assay buffer: 25 mM HEPES (pH 7.5), 150 mM NaCl, 1 mM Ca^2+, 1 mM Mg^2+, 4 mM Mn^2+, 0.1% BSA, 20 μM DTPA, with/without 6% ALBUMIN, HUMAN SERUM (C/NA-1653, SIGMA)]
By Ki is commonly meant a measure of affinity in units of concentration, obtained from inhibition or displacement. In the case of `CON(C)[C@H]1C[C@@H](c2ncc(CCC(=O)O)s2)N(C(=O)Cc2cc(Cl)c(NC(=O)c3csc4ccccc34)cc2F)C1` [Example 129, 3-[2-[1-[4-(3-Benzo[b]thiophenylcarbonylamino)-5-chloro-2-fluorophenylacetyl]-(4S)—N,O-dimethylhydroxylamino-(2S)-pyrrolidinyl]-5-thiazolyl]propionic acid], the Ki was 2.4 nM.
Take `O=C(O)CCc1cnc([C@@H]2C[C@H](OC3CCC3)CN2C(=O)Cc2cc(Cl)c(NC(=O)c3coc4ccccc34)cc2Cl)s1` [Example 42, 3-[2-[1-[4-[(1-Benzofuran-3-ylcarbonyl)amino]-2,5-dichlorophenylacetyl]-(4S)-cyclobutoxy-(2S)-pyrrolidinyl]-5-thiazolyl]propionic acid]: the inhibition constant (Ki) was 7 nM.
As to `Cn1cc(C(=O)Nc2cc(Cl)c(CC(=O)N3C[C@@H](Oc4cccnc4)C[C@H]3c3ncc(CCC(=O)O)s3)cc2Cl)c2ccccc21` [Example 44, 3-[2-[1-[2,5-Dichloro-4-(1-methyl-3-indolylcarbonylamino)phenylacetyl]-(4S)-(3-pyridyloxy)-(2S)-pyrrolidinyl]-5-thiazolyl]propionic acid], the Ki was 3.9 nM.
Then `COC[C@@H]1CC[C@@H](c2ncc(CCC(=O)O)s2)N1C(=O)Cc1cc(Cl)c(NC(=O)c2cn(C)c3ccccc23)cc1Cl` [Example 54, 3-[2-[1-[2,5-Dichloro-4-(1-methyl-3-indolylcarbonylamino)phenylacetyl]-(5S)-methoxymethyl-(2S)-pyrrolidinyl]-5-thiazolyl]propionic acid], with 24 nM; and `CCO[C@H]1CCN(C(=O)Cc2cc(Cl)c(NC(=O)c3cn(C)c4ccccc34)cc2Cl)[C@@H]1c1ncc(CCC(=O)O)s1` [Example 92, 3-[2-[1-[[2,5-Dichloro-4-(1-methyl-3-indolylcarbonylamino)phenyl]acetyl]-(3S)-ethoxy-(2S)-pyrrolidinyl]-5-thiazolyl]propionic acid], with 10 nM.
Then `O=C(O)CCc1cnc([C@@H]2[C@@H](O)CCN2C(=O)Cc2cc(Cl)c(Nc3nc4ccccc4o3)cc2Cl)s1` [Example 118, 3-[2-[1-[4-(2-Benzoxazolyl)amino-2,5-dichlorophenyl]acetyl-(3S)-hydroxy-(2S)-pyrrolidinyl]-5-thiazolyl]propionic acid], with 36 nM; and `CC(C)O[C@H]1C[C@@H](c2ncc(CCC(=O)O)s2)N(C(=O)Cc2cc(Cl)c(NC(=O)c3coc4ccccc34)cc2Cl)C1` [Example 37, 3-[2-[1-[4-[(1-Benzofuran-3-ylcarbonyl)amino]-2,5-dichlorophenylacetyl]-(4S)-isopropoxy-(2S)-pyrrolidinyl]5-thiazolyl]propionic acid], with 5.9 nM; and `O=C(O)CCc1cnc([C@@H]2[C@@H](O)CCN2C(=O)Cc2cc(Cl)c(NC(=O)c3csc4ccccc34)cc2Cl)s1` [Example 123], with 3.5 nM.
For the compound `CCO[C@H]1CCN(C(=O)Cc2cc(Cl)c(Nc3nc4ccccc4s3)cc2Cl)[C@@H]1c1ncc(CCC(=O)O)s1` [Example 115, 3-[2-[1-[4-(2-Benzothiazolyl)amino-2,5-dichlorophenyl]acetyl-(3S)-ethoxy-(2S)-pyrrolidinyl]-5-thiazolyl]propionic acid], the Ki was 8.4 nM.
As for `CON(C)[C@H]1C[C@@H](c2ncc(CCC(=O)O)s2)N(C(=O)Cc2cc(Cl)c(NC(=O)c3coc4ccccc34)cc2Cl)C1` [Example 132, 3-[2-[1-[-(3-Benzo[b]furanylcarbonylamino)-2,5-dichlorophenylacetyl]-(4S)—N,O-dimethylhydroxylamino-(2S)-pyrrolidinyl]-5-thiazolyl]propionic acid], the inhibition constant (Ki) was 13 nM.
The figure for `O=C(O)CCc1cnc([C@@H]2[C@@H](O)CCN2C(=O)Cc2cc(Cl)c(Nc3nc4ccccc4o3)cc2F)s1` [Example 117, 3-[2-[1-[4-(2-Benzoxazolyl)amino-5-chloro-2-fluorophenyl]acetyl-(3S)-hydroxy-(2S)-pyrrolidinyl]-5-thiazolyl]propionic acid] is 35 nM.
The figure for `CO[C@H]1C[C@@H](c2ncc(CCC(=O)O)o2)N(C(=O)Cc2cc(Cl)c(NC(=O)c3csc4ccccc34)cc2F)C1` [Example 15, 3-[2-[1-[[4-[(3-Benzo[b]thienylcarbonyl)amino]-5-chloro-2-fluorophenyl]acetyl]-(4S)-methoxy-(2S)-pyrrolidinyl]-5-oxazolyl]propionic acid] is 4.5 nM; for `CO[C@H]1C[C@@H](c2ncc(CCC(=O)O)s2)N(C(=O)Cc2cc(Cl)c(NC(=O)c3csc4ccccc34)cc2Cl)C1` [Example 3, 3-[2-[1-[[4-[(3-Benzo[b]thienylcarbonyl)amino]-2,5-dichlorophenyl]acetyl]-(4S)-methoxy-(2S)-pyrrolidinyl]-5-thiazolyl]propionic acid] it is 0.58 nM; for `CO[C@H]1C[C@@H](c2ncc(CCC(=O)O)s2)N(C(=O)Cc2ccc3nc(-c4cn(C)c5ccccc45)oc3c2F)C1` [Example 11, 3-[2-[1-[7-Fluoro-2-(1-methylindol-3-yl)-1,3-benzoxazol-6-ylacetyl]-(4S)-methoxy-(2S)-pyrrolidinyl]-5-thiazolyl]propionic acid] it is 0.5 nM.
Then `CC(C)O[C@H]1C[C@@H](c2ncc(CCC(=O)O)s2)N(C(=O)Cc2cc(Cl)c(NC(=O)c3cn(C)c4ccccc34)cc2Cl)C1` [Example 34, 3-[2-[1-[2,5-Dichloro-4-(1-methyl-3-indolylcarbonylamino)phenylacetyl]-(4S)-isopropoxy-(2S)-pyrrolidinyl]-5-thiazolyl]propionic acid], with 5.1 nM; and `COc1ccc(F)cc1Nc1nc2ccc(CC(=O)N3C[C@@H](OC)C[C@H]3c3ncc(CCC(=O)O)o3)c(F)c2o1` [Example 16, 3-[2-[1-[[7-Fluoro-2-(5-fluoro-2-methoxyphenylamino)-1,3-benzoxazol-6-yl]acetyl]-(4S)-methoxy-(2S)-pyrrolidinyl]-5-oxazolyl]propionic acid], with 22 nM; and `Cn1cc(C(=O)Nc2cc(Cl)c(CC(=O)N3C[C@@H](F)C[C@H]3c3ncc(CCC(=O)O)s3)cc2Cl)c2ccccc21` [Example 18, 3-[2-[1-[2,5-Dichloro-4-(1-methyl-3-indolylcarbonylamino)phenylacetyl]-(4S)-fluoro-(2S)-pyrrolidinyl]-5-thiazolyl]propionic acid], with 1.1 nM.
Consider `COc1ccc(F)cc1Nc1nc2ccc(CC(=O)N3C[C@@H](OC)C[C@H]3c3ncc(CCC(=O)O)s3)c(F)c2o1` [Example 9, 3-[2-[1-[[7-Fluoro-2-(5-fluoro-2-methoxyphenylamino)-1,3-benzoxazol-6-yl]acetyl]-(4S)-methoxy-(2S)-pyrrolidinyl]-5-thiazolyl]propionic acid], for which the Ki is 0.96 nM.
Then `CCO[C@H]1CCN(C(=O)Cc2cc(Cl)c(NC(=O)c3coc4ccccc34)cc2Cl)[C@@H]1c1ncc(CCC(=O)O)s1` [Example 96], with 6.4 nM; and `CO[C@@H]1C[C@@H](c2ncc(CCC(=O)O)s2)N(C(=O)Cc2cc(Cl)c(Nc3nc4ccccc4o3)cc2Cl)C1` [Example 124, 3-[2-[1-[4-(2-Benzoxazolyl)amino-2,5-dichlorophenyl]acetyl-(4R)-methoxy-(2S)-pyrrolidinyl]-5-thiazolyl]propionic acid], with 76 nM; and `CCO[C@H]1CCN(C(=O)Cc2ccc3nc(Nc4ccccc4OC)oc3c2)[C@@H]1c1ncc(CCC(=O)O)o1` [Example 106, 3-[2-[1-[[2-(2-Methoxyphenyl)amino-6-benzoxazolyl]acetyl]-(3S)-ethoxy-(2S)-pyrrolidinyl]-5-oxazolyl]propionic acid], with 21 nM.
The figure for `CO[C@H]1C[C@@H](c2ncc(CCC(=O)O)s2)N(C(=O)Cc2cc(Cl)c(NC(=O)c3nn(C)c4ccccc34)cc2F)C1` [Example 7, 3-[2-[1-[5-Chloro-2-fluoro-4-(1-methyl-3-indazolylcarbonyl)aminophenylacetyl]-(4S)-methoxy-(2S)-pyrrolidinyl]-5-thiazolyl]propionic acid] is 0.97 nM; for `COc1ccccc1Nc1nc2ccc(CC(=O)N3C[C@@H](F)C[C@H]3c3ncc(CCC(=O)O)s3)c(F)c2o1` [Example 23, 3-[2-[1-[[7-Fluoro-2-(2-methoxyphenylamino)-1,3-benzoxazol-6-yl]acetyl]-(4S)-fluoro-(2S)-pyrrolidinyl]-5-thiazolyl]propionic acid] it is 0.35 nM; for `CCO[C@H]1CCN(C(=O)Cc2ccc3nc(Nc4ccccc4C)oc3c2)[C@@H]1c1ncc(CCC(=O)O)o1` [Example 104, 3-[2-[1-[[2-(2-Methylphenyl)amino-6-benzoxazolyl]acetyl]-(3S)-ethoxy-(2S)-pyrrolidinyl]-5-oxazolyl]propionic acid] it is 4.5 nM.

The values above are taken from patent US20070232601A1, “Vla-4 Inhibitor” (priority 2004, published 2007).
